For data set [1], the target named is T1, HPK1 (Homo sapiens (Human), UniProt Q92918). As to the kind of experiment: Inhibition of HPK1 kinase activity in vitro (ADP-Glo), compounds of Formula I-1. Conditions: MBP substrate. The data set is classed as biochemical. The method, then: The starting concentration for all tested compounds was 10 μM, and diluted in three-fold concentration gradient for a total of 10 concentration points in duplicate.
Before the experiment, 50 μM DTT and the enzymatic reaction system buffer were prepared.
The compound dilution was transferred into 384-well plate by using a pipette, afterwards, the 384-well plate was sealed and centrifuged at 1000 g for 1 min. 2-fold concentration of HPK1 solution was prepared in the kinase buffer, and then 2.5 μL of the prepared 2-fold concentration of HPK1 solution was added into the 384 wells, centrifuged at 1000 g for 30 s, and incubated for 10 min at room temperature. A mixture of 2-fold concentration of MBP and ATP was prepare in the kinase buffer, and […] of prepared mixture of 2-fold concentration of MBP and ATP was added into the above reaction system for the reaction, centrifuged at 1000 g for 30 s, and then incubated at room temperature for 1 h, 5 μL of ADP-Glo reagent was added into the reaction system, and incubated at room temperature for 40 min. 10 μL of kinase detection reagent was added and incubated at room temperature for 40 min.
In the above formula, cmpd refers to the tested compound, PC refers to the positive control, and VC refers to the negative control.

Data set [2] has as its target T2, GCK (Homo sapiens (Human), UniProt Q12851). Description: In vitro enzyme activity, ADP-Glo method (Example 3). Conditions: recombinant protein, read-out: GCK inhibiting activity level (IC50). The data set is classed as biochemical. The method, then:
(§1) ADP-Glo™ Kinase Assay is a luminescent ADP assay that provides a versatile, homogeneous, high-throughput screening method to measure kinase activity by quantifying the amount of ADP produced during the kinase reaction. The assay was performed in two steps; first, after the kinase reaction, an equal volume of ADP-Glo™ Reagent was added to quench the kinase reaction and consume the remaining ATP. Second, the Kinase Assay Reagent was added to concurrently convert ADP to ATP and allow measurement of newly synthesized ATP using the luciferase/luciferin reaction. The light produced was measured using a photometer. Luminescence can be correlated with ADP concentration by using an ATP to ADP conversion curve. […] Meanwhile, better selectivity was shown on kinases with closer homology such as GCK/TNIK/PDK1.

The target in data set [3] is T1, HPK1. The description is as above. The data set is classed as biochemical. Conditions: recombinant protein, read-out: HPK1 inhibiting activity level (IC50). The protocol:
as §1

Data set [4] concerns the target T3, PDK1 (Homo sapiens (Human), UniProt O15530). The description is as above. Conditions: recombinant protein, read-out: PDK1 inhibiting activity level (IC50). The data set is classed as biochemical. The protocol:
as §1

Data set [5] deals with T4, TNIK (Homo sapiens (Human), UniProt Q9UKE5). The description is as above. The data set is classed as biochemical. The note with it: recombinant protein, read-out: TNIK inhibiting activity level (IC50). The method, then: as §1
Target sequence in this assay (Q9UKE5 whole entry, species assumed): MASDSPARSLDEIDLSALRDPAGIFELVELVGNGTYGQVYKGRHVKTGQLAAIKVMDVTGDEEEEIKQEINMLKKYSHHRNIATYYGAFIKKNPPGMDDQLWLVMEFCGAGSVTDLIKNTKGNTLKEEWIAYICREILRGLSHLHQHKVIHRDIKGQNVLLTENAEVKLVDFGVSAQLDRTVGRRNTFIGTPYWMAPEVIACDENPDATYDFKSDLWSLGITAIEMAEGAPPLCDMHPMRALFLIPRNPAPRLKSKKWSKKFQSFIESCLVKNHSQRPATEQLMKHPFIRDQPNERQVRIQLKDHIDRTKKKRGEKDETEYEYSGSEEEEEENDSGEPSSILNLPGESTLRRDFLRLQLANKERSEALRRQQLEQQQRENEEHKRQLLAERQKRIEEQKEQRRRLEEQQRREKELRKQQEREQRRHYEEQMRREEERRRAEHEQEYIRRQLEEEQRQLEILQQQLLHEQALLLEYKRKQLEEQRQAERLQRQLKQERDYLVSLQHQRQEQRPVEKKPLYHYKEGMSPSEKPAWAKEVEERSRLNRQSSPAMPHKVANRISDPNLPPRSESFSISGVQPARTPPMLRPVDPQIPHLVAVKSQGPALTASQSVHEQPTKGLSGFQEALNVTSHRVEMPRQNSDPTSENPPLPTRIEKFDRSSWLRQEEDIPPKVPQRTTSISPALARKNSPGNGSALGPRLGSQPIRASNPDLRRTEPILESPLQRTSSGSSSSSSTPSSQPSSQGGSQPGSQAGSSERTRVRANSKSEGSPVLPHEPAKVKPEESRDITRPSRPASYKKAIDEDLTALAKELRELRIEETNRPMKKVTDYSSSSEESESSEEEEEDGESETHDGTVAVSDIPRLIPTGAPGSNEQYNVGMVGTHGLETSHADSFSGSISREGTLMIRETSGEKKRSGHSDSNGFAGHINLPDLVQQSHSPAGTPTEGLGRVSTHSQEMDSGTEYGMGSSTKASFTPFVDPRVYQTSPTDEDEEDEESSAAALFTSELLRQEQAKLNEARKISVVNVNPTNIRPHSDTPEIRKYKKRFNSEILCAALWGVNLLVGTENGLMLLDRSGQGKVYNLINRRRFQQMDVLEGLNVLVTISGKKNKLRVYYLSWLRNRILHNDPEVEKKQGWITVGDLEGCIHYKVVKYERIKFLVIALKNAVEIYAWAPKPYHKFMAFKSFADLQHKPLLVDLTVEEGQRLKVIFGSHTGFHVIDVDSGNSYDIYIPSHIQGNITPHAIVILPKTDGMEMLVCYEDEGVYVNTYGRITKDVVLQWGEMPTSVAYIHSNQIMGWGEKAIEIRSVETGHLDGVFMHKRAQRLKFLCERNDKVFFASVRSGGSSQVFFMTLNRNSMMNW
Data set [6] in a line: Oral maximum tolerated dose / oral acute toxicity test in mice. The data set is classed as in vivo. The note with it: for Death, Female mice / Death, Male mice: P.O.; for MTD: mouse, in vivo, po, mice, single dose. From the text: The inventors tested representative compounds for oral maximum tolerated dose in mice.
For data set [7], the system named is Feline Infectious Peritonitis. Description: Animal clinical trial in cats with Feline Infectious Peritonitis. The data set is classed as in vivo. Conditions: 20 days; for ALB/GLB, After treatment / Feline serum amyloid A (fSAA, mg/L), After treatment: 1.5 mg/kg twice a day; for body weight (kg), After treatment: injection 1.5 mg/kg twice a day. The text has this:
Therefore, the inventors hypothesized that HPK1 inhibitors might have therapeutic effects on Feline Infectious Peritonitis. To validate this hypothesis, the inventors conducted an animal clinical trial. Three animals were included in the experiment, all of them suffered from Feline Infectious Peritonitis, aged between 5-12 months, one was female and the other two were male (Table 4).

Data set [8] concerns the target T1, HPK1. Description: Inhibition of HPK1 kinase activity in vitro (ADP-Glo), compounds of Formula I-2. The data set is classed as biochemical. Conditions: ADP-Glo; read-out: Activity/IC50, nM HPK1. The method, then: The starting concentration for all tested compounds was 10 μM, and diluted in three-fold concentration gradient for a total of 10 concentration points in duplicate. Before the experiment, 50 μM DTT and the enzymatic reaction system buffer were prepared. […] A mixture of 2-fold concentration of MBP and ATP was prepare in the kinase buffer, and 2.5 μL of prepared mixture of 2-fold concentration of MBP and ATP was added into the above reaction system for the reaction, centrifuged at 1000 g for 30 s, and then incubated at room temperature for 1 h. 5 μL of ADP-Glo reagent was added into the reaction system, and incubated at room temperature for 40 min. 10 μL of kinase detection reagent was added and incubated at room temperature for 40 min. […] In the above formula, empd refers to the tested compound, PC refers to the positive control, and VC refers to the negative control.
(In ADP-Glo the light output rises with the ADP produced.)

Data set [9] deals with T2, GCK. Description: Inhibition of GCK kinase activity in vitro (ADP-Glo). The data set is classed as biochemical. The note with it: ADP-Glo; read-out: Activity/IC50, nM GCK. The method, then: (§2) The starting concentration for all tested compounds was 10 μM, and diluted in three-fold concentration gradient for a total of 10 concentration points in duplicate. […] A mixture of 2-fold concentration of MBP and ATP was prepare in the kinase buffer, and 2.5 μL of prepared mixture of 2-fold concentration of MBP and ATP was added into the above reaction system for the reaction, centrifuged at 1000 g for 30 s, and then incubated at room temperature for 1 h. 5 μL of ADP-Glo reagent was added into the reaction system, and incubated at room temperature for 40 min. 10 μL of kinase detection reagent was added and incubated at room temperature for 40 min.

In data set [10] the target is T4, TNIK. As to the kind of experiment: Inhibition of TNIK kinase activity in vitro (ADP-Glo). The data set is classed as biochemical. Conditions: ADP-Glo; read-out: Activity/IC50, nM TNIK. The method, then: as §2
Target sequence in this assay (Q9UKE5 whole entry): as the sequence (Q9UKE5 whole entry, species assumed) above
Data set [11] addresses T3, PDK1. As to the kind of experiment: Inhibition of PDK1 kinase activity in vitro (ADP-Glo). The data set is classed as biochemical. Conditions: ADP-Glo; read-out: Activity/IC50, nM PDK1. The protocol:
as §2

pIC50: −log10 of the molar value.

The term pIC50 denotes the negative decadic logarithm of the IC50, by convention in mol/L. By MTD is commonly meant the largest dose that counted as tolerated. Read a high MTD as better tolerability.

T1 sequence (Q92918 whole entry): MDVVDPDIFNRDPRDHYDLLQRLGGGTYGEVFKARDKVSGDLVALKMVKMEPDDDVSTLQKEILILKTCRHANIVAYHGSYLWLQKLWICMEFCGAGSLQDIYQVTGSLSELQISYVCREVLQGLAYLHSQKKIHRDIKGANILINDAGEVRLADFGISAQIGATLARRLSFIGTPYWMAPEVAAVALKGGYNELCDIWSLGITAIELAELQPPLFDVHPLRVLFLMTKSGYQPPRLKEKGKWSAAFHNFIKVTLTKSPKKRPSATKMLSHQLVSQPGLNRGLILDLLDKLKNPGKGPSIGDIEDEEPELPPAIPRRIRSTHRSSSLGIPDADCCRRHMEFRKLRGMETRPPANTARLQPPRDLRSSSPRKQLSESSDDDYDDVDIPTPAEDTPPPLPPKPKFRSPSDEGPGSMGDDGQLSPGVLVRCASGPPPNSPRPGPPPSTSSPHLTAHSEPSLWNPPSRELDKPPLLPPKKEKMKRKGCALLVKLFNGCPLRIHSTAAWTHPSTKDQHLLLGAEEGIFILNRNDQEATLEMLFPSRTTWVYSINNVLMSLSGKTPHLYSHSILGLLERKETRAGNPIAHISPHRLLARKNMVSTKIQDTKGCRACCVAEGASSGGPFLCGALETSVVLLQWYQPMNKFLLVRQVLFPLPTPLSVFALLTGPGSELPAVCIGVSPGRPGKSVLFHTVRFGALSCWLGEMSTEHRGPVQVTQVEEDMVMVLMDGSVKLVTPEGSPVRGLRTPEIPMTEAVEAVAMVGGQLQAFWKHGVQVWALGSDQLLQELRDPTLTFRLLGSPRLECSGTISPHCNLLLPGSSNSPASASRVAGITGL
T2 sequence (Q12851 whole entry): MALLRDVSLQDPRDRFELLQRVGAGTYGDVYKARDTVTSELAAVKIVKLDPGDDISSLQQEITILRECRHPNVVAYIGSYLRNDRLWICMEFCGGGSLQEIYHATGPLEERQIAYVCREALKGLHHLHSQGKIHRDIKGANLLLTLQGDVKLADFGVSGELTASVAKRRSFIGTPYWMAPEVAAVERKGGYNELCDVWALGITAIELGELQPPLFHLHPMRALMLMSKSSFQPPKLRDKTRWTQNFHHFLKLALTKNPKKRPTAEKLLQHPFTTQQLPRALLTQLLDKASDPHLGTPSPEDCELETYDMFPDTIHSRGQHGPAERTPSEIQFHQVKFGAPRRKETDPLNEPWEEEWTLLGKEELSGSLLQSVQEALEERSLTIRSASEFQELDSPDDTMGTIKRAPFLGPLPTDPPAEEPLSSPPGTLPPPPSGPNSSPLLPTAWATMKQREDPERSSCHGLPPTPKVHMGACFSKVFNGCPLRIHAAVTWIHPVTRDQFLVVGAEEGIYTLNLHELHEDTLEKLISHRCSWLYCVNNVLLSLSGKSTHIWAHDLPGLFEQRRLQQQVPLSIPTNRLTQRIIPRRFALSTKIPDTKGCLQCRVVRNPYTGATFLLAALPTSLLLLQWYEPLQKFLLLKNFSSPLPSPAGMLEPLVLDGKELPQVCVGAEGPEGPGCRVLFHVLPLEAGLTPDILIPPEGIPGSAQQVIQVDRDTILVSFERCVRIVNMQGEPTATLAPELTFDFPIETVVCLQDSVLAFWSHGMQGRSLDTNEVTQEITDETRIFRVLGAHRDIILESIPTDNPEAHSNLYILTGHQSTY
T3 sequence (O15530 whole entry): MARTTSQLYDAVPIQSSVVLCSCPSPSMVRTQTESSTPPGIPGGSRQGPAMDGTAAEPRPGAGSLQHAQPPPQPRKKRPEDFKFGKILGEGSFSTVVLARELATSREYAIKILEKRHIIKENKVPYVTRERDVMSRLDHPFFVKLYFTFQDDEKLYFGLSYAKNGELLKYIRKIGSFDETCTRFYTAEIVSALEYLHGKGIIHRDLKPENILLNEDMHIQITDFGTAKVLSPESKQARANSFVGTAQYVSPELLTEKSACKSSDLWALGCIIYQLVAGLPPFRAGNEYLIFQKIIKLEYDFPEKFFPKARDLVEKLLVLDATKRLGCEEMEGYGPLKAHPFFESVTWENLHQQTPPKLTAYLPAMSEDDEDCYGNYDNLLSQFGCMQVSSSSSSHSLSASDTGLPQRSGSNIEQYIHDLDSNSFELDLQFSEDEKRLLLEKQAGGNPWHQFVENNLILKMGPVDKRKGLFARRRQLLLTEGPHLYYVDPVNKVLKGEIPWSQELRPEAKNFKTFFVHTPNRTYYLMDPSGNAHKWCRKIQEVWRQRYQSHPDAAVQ

At HPK1 [1], “4-((2-((4-((2-(dimethylamino)ethyl)(methyl)amino)phenyl)amino)quinazolin-8-yl)oxo)cyclohexan-1-ol [Example 2]” gave a negative-log IC50 (pIC50) of more than 7.30.

In the case of `CN1CCC(n2cc(Nc3ncc4cccc(O[C@H]5CC[C@H](N)CC5)c4n3)cn2)CC1` [Compound C1], the pIC50 is 7.00 to 8.00 at GCK [2], not below 8.00 at HPK1 [3], 6.00 to 7.00 at PDK1 [4] and 6.00 to 7.00 on TNIK [5]. Also, the “Death, Female mice” value in data set [6] (225 mg/kg) was 0/5; in [6] (337.5 mg/kg), 0/5; in data set [6] (506.3 mg/kg) it was 1/5; in data set [6] (759.4 mg/kg), 4/5; in data set [6] (1139.1 mg/kg), 5/5. Besides, the “Death, Male mice” value in data set [6] (225 mg/kg) was 0/5; in data set [6] (337.5 mg/kg), 0/5; in data set [6] (506.3 mg/kg), 2/5; in [6] (759.4 mg/kg), 4/5; in data set [6] (1139.1 mg/kg), 5/5. The same molecule displayed an MTD in data set [6] of 338 mg/kg. For the same molecule, the “ALB/GLB, After treatment” value in data set [7] (Animal No. 1, before treatment 0.5) came out at 0.7; in data set [7] (Animal No. 2, before treatment 0.35), 0.47; in data set [7] (Animal No. 3, before treatment 0.4), 0.5. For the same molecule, the “body weight (kg), After treatment” value in data set [7] (Animal No. 1, before treatment 1.5) is 2.15 kg; in data set [7] (Animal No. 2, before treatment 2.31), 2.81 kg; in [7] (Animal No. 3, before treatment 2.9), 3.2 kg. The “Feline serum amyloid A (fSAA, mg/L), After treatment” value was determined as 15.14 mg/L in [7] (Animal No. 2, before treatment 70.47) and 17.97 mg/L in data set [7] (Animal No. 3, before treatment 104.88).

As for `CN1CCC(n2cc(Nc3ncc4cccc(O[C@H]5CC[C@@H](N)CC5)c4n3)cn2)CC1` [Compound C2], the pIC50 on GCK [2] was 7.00 to 8.00; on HPK1 [3], not below 8.00; on PDK1 [4], 6.00 to 7.00; at TNIK [5], 6.00 to 7.00.

Consider `CN1CCN(c2ccc(Nc3ncc4cccc(O[C@H]5CC[C@H](O)CC5)c4n3)cc2)CC1` [Compound C3], for which the pIC50 at GCK [2] is 7.00 to 8.00; at HPK1 [3], 7.00 to 8.00; on PDK1 [4], less than 6.00; on TNIK [5], 7.00 to 8.00. Also, the “Death, Female mice” value in data set [6] (225 mg/kg) was 0/5; in data set [6] (337.5 mg/kg), 2/5; in data set [6] (506.3 mg/kg), 2/5; in data set [6] (759.4 mg/kg), 5/5; in data set [6] (1139.1 mg/kg) it was 5/5. The “Death, Male mice” value in [6] (225 mg/kg) was 0/5; in data set [6] (337.5 mg/kg), 1/5; in data set [6] (506.3 mg/kg) it was 3/5; in data set [6] (759.4 mg/kg), 3/5; in data set [6] (1139.1 mg/kg) it was 5/5. Besides, in [6], the maximum tolerated dose (MTD) is 225 mg/kg.

In the case of `CN1CCN(c2ccc(Nc3ncc4cccc(O[C@H]5CC[C@@H](O)CC5)c4n3)cc2)CC1` [Compound C4], the pIC50 on GCK [2] was 7.00 to 8.00; at HPK1 [3], 7.00 to 8.00; on PDK1 [4] it was less than 6.00; on TNIK [5], 7.00 to 8.00.

Take `Cn1cccc1-c1cc2cc(NC(=O)C3C[C@H]3F)ncc2c(N)c1F` (some centres unmarked) [Compound C5]: the pIC50 was not below 8.00 at GCK [2], not below 8.00 at HPK1 [3], less than 6.00 on PDK1 [4] and 7.00 to 8.00 at TNIK [5].

Regarding `Cn1cccc1-c1cc2cc(NC(=O)C3C[C@@H]3F)ncc2c(N)c1F` (some centres unmarked) [Compound C6], the negative-log IC50 (pIC50) at GCK [2] is 7.00 to 8.00; at HPK1 [3] it was not below 8.00; at PDK1 [4] it was less than 6.00; at TNIK [5], 7.00 to 8.00.

As to `Cn1cccc1-c1cc2cc(NC(=O)[C@@H]3C[C@@H]3F)ncc2c(N)c1F` [DD02001A cis, (1S,2S)—N-(8-amino-7-fluoro-6-(1-methyl-1H-pyrrole-2-yl)isoquinolin-3-yl)-2-fluorocyclopropane-1-carboxamide], the IC50 on HPK1 [8] is less than 10 nM; at GCK [9], more than 10 nM; on TNIK [10], more than 10 nM; on PDK1 [11] it was more than 7000 nM.

With `CN1CCC(n2cc(Nc3ncc4cccc(O[C@H]5CC[C@@H](N)CC5)c4n3)cn2)CC1` [Example 1, 8-(((1s,4s)-4-aminocyclohexyl)oxo)-N-(1-(1-methylpiperidin-4-yl)-1H-pyrazol-4-yl)quinazolin-2-amine], the pIC50 on HPK1 [1] was more than 7.30.

Take `CN1CCC(n2cc(Nc3ncc4cccc(OC5CCC(O)CC5)c4n3)cn2)CC1` (centres unmarked) [Example 3, 4-((2-((1-(1-methylpiperidin-4-yl)-1H-pyrazol-4-yl)amino)quinazolin-8-yl)oxo)cyclohexan-1-ol]: the pIC50 on HPK1 [1] was more than 7.30.

On HPK1 [1], `CN1CCN(c2ccc(Nc3ncc4cccc(OC5CCC(O)CC5)c4n3)cc2)CC1` (centres unmarked) [Example 4] had a negative-log IC50 (pIC50) of more than 7.30.

On to `COCCOc1cccc2cnc(Nc3ccc(N4CCN(C)CC4)cc3)nc12` [Example 5, 8-(2-methoxyethoxy)-N-(4-(4-methylpiperazin-1-yl)phenyl)quinazolin-2-amine], for which, on HPK1 [1], the negative logarithm of the IC50 (pIC50) was more than 6.70.

`CN1CCN(c2ccc(Nc3ncc4cccc(OC5CCC(O)C5)c4n3)cc2)CC1` (centres unmarked) [Example 6] showed a negative-log IC50 (pIC50) on HPK1 [1] of more than 7.00.

Turning to `CN1CCN(c2ccc(Nc3ncc4cccc(OC5CCC(O)CC5)c4n3)nc2)CC1` (centres unmarked) [Example 7, 4-((2-((5-(4-methylpiperazin-1-yl)pyridin-2-yl)amino)quinazolin-8-yl)oxo)cyclohexan-1-ol], the pIC50 against HPK1 [1] is more than 6.52.

In turn, `CN1CCC(NC(=O)c2ccc(Nc3ncc4cccc(OC5CCC(O)CC5)c4n3)cc2)CC1` (centres unmarked) [Example 8, 4-((8-((4-hydroxycyclohexyl)oxo)quinazolin-2-yl)amino)-N-(1-methylpiperidin-4-yl)benzamide] had a pIC50 against HPK1 [1] of more than 7.30.

In the case of `NS(=O)(=O)c1ccc(Nc2ncc3cccc(OC4CCC(O)C4)c3n2)cc1` (centres unmarked) [Example 9, 4-((8-((3-hydroxycyclopentyl)oxo)quinazolin-2-yl)amino)benzenesulfonamide], the pIC50 at HPK1 [1] was more than 6.52.

Molecule `NS(=O)(=O)c1cccc(Nc2ncc3cccc(OC4CCC(O)CC4)c3n2)c1` (centres unmarked) [Example 10, 3-((8-((4-hydroxycyclohexyl)oxo)quinazolin-2-yl)amino)benzenesulfonamide] had a negative-log IC50 (pIC50) against HPK1 [1] of less than 6.52.
